From patent publication US20070260068A1, “Method for the Preparation of Crystal Forms of Torsemide in a Pure State” (priority 2004, published 2007)

How the values were obtained:
[1] = solubility of amorphous torsemide compared with crystalline forms; format: physicochemical; settings: isolated amorphous torsemide vs crystalline forms incl. those of U.S. 5,914,336, Re. 34,672 and WO 00/20395
[2] = stability of the crystal form in an ethanol slurry; format: physicochemical
Method: (§1) In another embodiment of the present invention, torsemide modification I may be made from torsemide modification II by reslurry in ethanol. By the process of the present invention, torsemide modification II is stirred at room temperature in ethanol for a time sufficient to induce the transformation of torsemide modification II to torsemide modification I. Preferably the mixture is stirred for 2 hours. Torsemide modification I is isolated upon filtering the mixture followed by drying under high vacuum at a temperature of about 40° C. to about 60° C. for a sufficient time to complete drying. Drying is complete upon reaching constant weight. It has been observed that torsemide modification I is stable in an ethanol slurry for at least 65 hours.
as §1, with “dimethyl formamide (DMF).” for “ethanol.”, “methods” for “process”, “DMF” for “ethanol”, “I.” for “I. Preferably the mixture is stirred for 2 hours.”, “It has been observed that torsemide modification I is stable in an ethanol slurry for at least 65 hours.” left out

With `Cc1cccc(Nc2ccncc2S(=O)(=O)NC(=O)NC(C)C)c1` [amorphous torsemide, 1-Isopropyl-3-[(4-m-toluidino-3-pyridyl)sulfonyl] urea] as the compound, how does the “solubility relative to crystalline forms of torsemide” value [1] read?
The value was “more soluble than crystalline forms of torsemide”.

With `Cc1cccc(Nc2ccncc2S(=O)(=O)NC(=O)NC(C)C)c1` [torsemide modification I, 1-Isopropyl-3-[(4-m-toluidino-3-pyridyl)sulfonyl] urea] as the compound, how does the “time stable in an ethanol slurry” value [2] read?
The value was “at least 65 hours”.
